According to patent US4833242A, “Cephalosporin derivatives and salts thereof” (Daiichi Seiyaku Co., Ltd., priority 1984, dated 1989):
≈ marks a conversion by molar mass, not a printed value. Structures can show the parent of a compound that is named as a salt.

Key:
Ps. aeruginosa, 32121 = assay: Minimum Inhibitory Concentration, broth dilution method; format: cell-based; conditions: Pseudomonas aeruginosa, 10^6 cells/ml, 37° C., 18 hours
Experimental: (§1) |Minimum Inhibitory Concentration (MIC, μg/ml) |(Broth dilution method, inoculated amount: 10^6 cells/ml, incubated |at 37° C. for 18 hours)

S. aureus, 209P = assay: as above; format: cell-based; conditions: Staphylococcus aureus, 10^6 cells/ml, 37° C., 18 hours
Experimental: as §1

E. coli, NIHJ = assay: as above; format: cell-based; conditions: Escherichia coli, 10^6 cells/ml, 37° C., 18 hours
Experimental: as §1

Ser. marcescens, 10104 = assay: as above; format: cell-based; conditions: Serratia marcescens, 10^6 cells/ml, 37° C., 18 hours
Experimental: as §1

Ps. aeruginosa, 32104 = assay: as above; format: cell-based; conditions: Pseudomonas aeruginosa, 10^6 cells/ml, 37° C., 18 hours
Experimental: as §1

Ps. aeruginosa, 32234 = assay: as above; format: cell-based; conditions: Pseudomonas aeruginosa, 10^6 cells/ml, 37° C., 18 hours
Experimental: as §1

Pr. vulgaris, 08601 = assay: as above; format: cell-based; conditions: Proteus vulgaris, 10^6 cells/ml, 37° C., 18 hours
Experimental: as §1

Ps. putida, IID 5121 = assay: as above; format: cell-based; conditions: Pseudomonas putida, IID5121, 10^6 cells/ml, 37° C., 18 hours
Experimental: as §1

[1] = acute toxicity, i.v. in mice; conditions: mouse, in vivo, iv
male rats = assay: repeated intravenous administration to male rats for 10 consecutive days; format: in vivo; conditions: intravenous, 100, 300 or 1,000 mg/kg
Source text: The compounds of this invention are also characterized by low toxicity and, therefore, have a wide safety margin.

SMILES | MIC (Ps. aeruginosa, 32121) [µg/mL] | MIC (S. aureus, 209P) [µg/mL] | MIC (E. coli, NIHJ) [µg/mL] | MIC (Ser. marcescens, 10104) [µg/mL] | MIC (Ps. aeruginosa, 32104) [µg/mL] | MIC (Ps. aeruginosa, 32234) [µg/mL] | MIC (Pr. vulgaris, 08601) [µg/mL] | MIC (Ps. putida, IID 5121) [µg/mL] | LD50 [1] [mg/kg] | body weight, clinical examinations, weight of various organs and histological findings (male rats)
CO/N=C(\C(=O)N[C@@H]1C(=O)N2C(C(=O)[O-])=C(C[n+]3ccc(-c4cnco4)cc3)CS[C@H]12)c1csc(N)n1 [Compound E, 7β-[2-(2-Aminothiazol-4-yl)-2-methoxyiminoacetamido]-3-[4-(oxazol-5-yl)-1-pyridinio]methyl-3-cephem-4-carboxylate (syn isomer)] | 0.78 (≈ 1.44 µM) | 0.39 (≈ 0.72 µM) | < 0.1 | < 0.1 | 1.56 (≈ 2.88 µM) | 0.78 (≈ 1.44 µM) | < 0.1 | 3.13 (≈ 5.78 µM) | > 4000 | no abnormality were observed
CO/N=C(\C(=O)N[C@@H]1C(=O)N2C(C(=O)O)=C(COC(C)=O)CS[C@H]12)c1csc(N)n1 [Cefotaxime, Sodium 7β-[2-(2-aminothiazol-4-yl)-2-methoxyiminoacetamido]-3-acetoxymethyl-3-cephem-4-carboxylate (syn isomer), reference compound] | 12.5 | 3.13 | < 0.1 | 0.39 | 25 | 12.5 | < 0.1 | 50 | – | –
CO/N=C(\C(=O)N[C@@H]1C(=O)N2C(C(=O)[O-])=C(C[n+]3ccc(-n4cncn4)cc3)CS[C@H]12)c1csc(N)n1 [Compound B, 7β-[2-(2-Aminothiazol-4-yl)-2-methoxyiminoacetamido]-3-[4-(1,2,4-triazol-1-yl)-1-pyridinio]methyl-3-cephem-4-carboxylate dihydrochloride (syn isomer)] | 0.78 | 0.78 | < 0.1 | < 0.1 | 1.56 | 0.78 | < 0.1 | 6.25 | – | –
CO/N=C(\C(=O)N[C@@H]1C(=O)N2C(C(=O)[O-])=C(C[n+]3ccc(-c4csnn4)cc3)CS[C@H]12)c1csc(N)n1 [Compound H, 7β-[2-(2-Aminothiazol-4-yl)-2-methoxyiminoacetamido]-3-[4-(1,2,3-thiadiazol-4-yl)-1-pyridinio]methyl-3-cephem-4-carboxylate dihydrochloride (syn isomer)] | 1.56 | 0.39 | < 0.1 | < 0.1 | 1.56 | 0.78 | < 0.1 | 12.5 | – | –
CO/N=C(\C(=O)N[C@@H]1C(=O)N2C(C(=O)[O-])=C(C[n+]3ccc(-c4ncc[nH]4)cc3)CS[C@H]12)c1csc(N)n1 [Compound C, 7β-[2-(2-Aminothiazol-4-yl)-2-methoxyiminoacetamido]-3-[4-(imidazol-2-yl)-1-pyridinio]methyl-3-cephem-4-carboxylate trihydrochloride (syn isomer)] | 12.5 | 0.78 | < 0.1 | < 0.1 | 25 | 1.56 | < 0.1 | 12.5 | – | –
CO/N=C(\C(=O)N[C@@H]1C(=O)N2C(C(=O)[O-])=C(C[n+]3ccc(-n4ccnc4)cc3)CS[C@H]12)c1csc(N)n1 [Compound A, 7β-[2-(2-Aminothiazol-4-yl)-2-methoxyiminoacetamido]-3-[4-(imidazol-1-yl)-1-pyridinio]methyl-3-cephem-4-carboxylate trihydrochloride (syn isomer)] | 1.56 | 0.39 | < 0.1 | < 0.1 | 1.56 | 1.56 | < 0.1 | 1.56 | 2000 to 4000 | –
CO/N=C(\C(=O)N[C@@H]1C(=O)N2C(C(=O)[O-])=C(C[n+]3ccc(-c4ncco4)cc3)CS[C@H]12)c1csc(N)n1 [Compound D, 7β-[2-(2-Aminothiazol-4-yl)-2-methoxyiminoacetamido]-3-[4-(oxazol-2-yl)-1-pyridinio]methyl-3-cephem-4-carboxylate (syn isomer)] | 1.56 (≈ 2.88 µM) | 0.78 (≈ 1.44 µM) | < 0.1 | < 0.1 | 3.13 (≈ 5.78 µM) | 1.56 (≈ 2.88 µM) | < 0.1 | 3.13 (≈ 5.78 µM) | > 4000 | –
CO/N=C(\C(=O)N[C@@H]1C(=O)N2C(C(=O)[O-])=C(C[n+]3ccc(-c4nnco4)cc3)CS[C@H]12)c1csc(N)n1 [Compound F, 7β-[2-(2-Aminothiazol-4-yl)-2-methoxyiminoacetamido]-3-[4-(1,3,4-oxadiazol-2-yl)-1-pyridinio]-methyl-3-cephem-4-carboxylate (syn isomer)] | 0.78 (≈ 1.44 µM) | 0.39 (≈ 0.719 µM) | < 0.1 | < 0.1 | 0.78 (≈ 1.44 µM) | 0.78 (≈ 1.44 µM) | 0.1 (≈ 0.184 µM) | 1.56 (≈ 2.88 µM) | > 4000 | –
CO/N=C(\C(=O)N[C@@H]1C(=O)N2C(C(=O)[O-])=C(C[n+]3cccc(-c4cnco4)c3)CS[C@H]12)c1csc(N)n1 [Compound G, 7β-[2-(2-Aminothiazol-4-yl)-2-methoxyiminoacetamido]-3-[3-(oxazol-5-yl)-1-pyridinio]methyl-3-cephem-4-carboxylate (syn isomer)] | 1.56 (≈ 2.88 µM) | 0.39 (≈ 0.72 µM) | < 0.1 | < 0.1 | 3.13 (≈ 5.78 µM) | 1.56 (≈ 2.88 µM) | 0.1 (≈ 0.185 µM) | 12.5 (≈ 23.1 µM) | – | –
